Columns and labels:
[1] = tested on: CYP3A4/5; experiment: CYP induction in primary human hepatocytes, Western immunoblotting: CYP3A4/5; assay type: cell-based; details: 10 or 50 μM for 72 hours; hepatocytes from three donors
Method: Upon receiving a primary culture of human hepatocytes in 6-well plates, the culture medium containing streptomycin/penicillin was refreshed (2 ml/well). […] The culture medium and testing compounds were replenished every 24 hours.
At the end of the treatment, the cells were harvested into 1 mL of phosphate-buffered saline (PBS) after washing twice. The cells were precipitated by centrifugation, and were resuspended in PBS (approximately 50 μL).
The membrane was blocked by 5% non-fat dried milk (NFDM) blotting buffer (PBS containing 0.05% Tween 20) at 4° C. overnight. […] The membrane was rinsed six times (10 minutes each time) with the blotting buffer, and exposed to 1:10,000 diluted secondary antibodies labeled with horseradish peroxidase for 1 hour at room temperature. After being extensively rinsed with the blotting buffer, the membrane was exposed to the substrate of peroxidase (enhanced chemiluminescence reagent). CYP proteins were detected by […] using an X-ray developer.

[2] = target: T1, CYP2C9 (Homo sapiens, UniProt P11712); experiment: CYP inhibition in HLM: S-warfarin 7-hydroxylation; assay type: in vitro ADME; details: 10 or 50 μM
T1 construct: tissue Gentest Corp. (Woburn, Mass.); host or cells: pooled human liver microsomes
T1 sequence (P11712 whole entry): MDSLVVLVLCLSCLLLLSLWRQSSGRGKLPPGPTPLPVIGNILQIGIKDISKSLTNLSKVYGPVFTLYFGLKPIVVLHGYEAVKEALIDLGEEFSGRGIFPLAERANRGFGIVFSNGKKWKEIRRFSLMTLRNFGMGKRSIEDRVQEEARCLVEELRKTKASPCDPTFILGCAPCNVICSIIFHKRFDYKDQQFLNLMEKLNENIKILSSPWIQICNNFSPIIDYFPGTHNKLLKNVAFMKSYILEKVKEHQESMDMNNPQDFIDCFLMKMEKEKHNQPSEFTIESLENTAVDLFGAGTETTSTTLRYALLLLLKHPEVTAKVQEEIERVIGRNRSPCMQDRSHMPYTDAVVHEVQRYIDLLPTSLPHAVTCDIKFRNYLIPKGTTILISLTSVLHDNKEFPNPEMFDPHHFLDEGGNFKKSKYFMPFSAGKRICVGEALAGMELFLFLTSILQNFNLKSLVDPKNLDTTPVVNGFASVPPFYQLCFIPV
Method: The incubations were carried out in test tubes (12.0×75 mm). The incubation mixtures (250 μL) contained 0.5 mg of HLM protein, 50 (CYP1A2 and CYP2E1) or 25 (CYP2C9, CYP2C19, CYP2D6 and CYP3A4) pmol of recombinant human CYPs, Compound 1 (10 or 50 μM), probe substrate (R—, S-warfarin, chlorzoxazone, S-mephenyloin, or bufuralol) at different concentrations, and 0.5 mg of NADPH in 50 mM Tris buffer containing 15 mM MgCl2 (pH 7.4). Compound 1 was added to the reaction mixture 5 minutes prior to the addition of the probe substrate. […]
The quantification was based on the calibration curves, and the quality control (QC) samples were applied to ensure the quality of the experiments. […]
1. CYP1A2/2C9/3A4-mediated warfarin 6-, 7-, 8-, and 10-hydroxylation (Zhang et al., Drug Metab. Dispos. 23:1339-1346, 1995; Rettie et al., Chem. Res. Toxicol. 5:54-59, 1992; Brian et al., Biochemistry 29:11280-11292, 1990): Hewlett Packard 1100 HPLC system (Waldbronn, Germany) comprised a binary pump, an autosampler, a column compartment unit, a photodiode array detector (PDA), and a fluorescence detector. […] The warfarin metabolites, 6-, 8-, and 10-hydroxywarfarin, were monitored by UV at 313 nm, and 7-hydroxywarfarin by fluorescence at Ex320 nm/Em380 nm. […]

## CNC(=O)Cc1ccc2ccn(C3CCN(CCc4ccccc4F)CC3)c2c1 [Compound 1, N-methyl-[1-[1-(2-fluorophenethyl)piperidine-4-yl]-1H-indol-6-yl] acetamide]
[1]
  expression of CYP3A4/5 (Western immunoblotting): did not increase
[2]
  inhibitory effect on CYP2C9 activity (in words): no inhibitory effect

Reference: patent US20050033056A1, “Hydroxylated indole derivatives and uses thereof” (priority 2001, published 2005)
